Reference: paper PMC4004252 (Journal of the American Chemical Society, 2014)
Blank lines part the entries; values can stand above or below the compound they belong to.

Assays:
[1] = system: ctDNA; test: ctDNA absorption spectroscopy titration of ethidium bromide; format: binding, calf; conditions: value for EB in main text
[2] = system: relaxed pHOT1 plasmid DNA; test: DNA unwinding assay, relaxed pHOT1 as substrate; format: biochemical; conditions: 10 units Top1, 37 °C
[3] = biological target: T1, Top1 (Homo sapiens, UniProt P11387); test: Standard Top1 scDNA relaxation assay; format: biochemical
T1 sequence (P11387 1-765): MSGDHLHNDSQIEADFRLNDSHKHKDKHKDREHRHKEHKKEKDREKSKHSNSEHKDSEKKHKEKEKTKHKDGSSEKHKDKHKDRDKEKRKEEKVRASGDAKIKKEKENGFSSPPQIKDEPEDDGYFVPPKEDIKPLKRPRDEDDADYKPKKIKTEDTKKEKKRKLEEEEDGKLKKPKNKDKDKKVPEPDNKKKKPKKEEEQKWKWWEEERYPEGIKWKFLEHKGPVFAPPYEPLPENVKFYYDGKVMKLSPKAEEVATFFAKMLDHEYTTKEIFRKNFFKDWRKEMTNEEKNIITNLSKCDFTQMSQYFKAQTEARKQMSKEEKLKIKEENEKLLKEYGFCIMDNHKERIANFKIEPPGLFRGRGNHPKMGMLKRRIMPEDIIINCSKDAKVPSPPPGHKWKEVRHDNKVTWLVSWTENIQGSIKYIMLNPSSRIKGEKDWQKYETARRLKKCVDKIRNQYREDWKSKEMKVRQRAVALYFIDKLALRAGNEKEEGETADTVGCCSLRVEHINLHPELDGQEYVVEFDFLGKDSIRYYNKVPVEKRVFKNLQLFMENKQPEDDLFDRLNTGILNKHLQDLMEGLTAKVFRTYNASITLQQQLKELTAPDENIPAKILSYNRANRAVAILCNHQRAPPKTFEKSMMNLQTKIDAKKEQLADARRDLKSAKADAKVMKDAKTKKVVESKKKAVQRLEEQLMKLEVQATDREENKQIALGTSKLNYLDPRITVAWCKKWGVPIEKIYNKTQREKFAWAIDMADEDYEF

[4] = biological target: T1, Top1; format: biochemical

Structure (SMILES): CC[n+]1c(-c2ccccc2)c2cc(N)ccc2c2ccc(N)cc21 [EB, ethidium bromide]
KA, ctDNA affinity constant [1]: 5(1) × 10^6 M^–1 bp

dose giving complete inhibition of the enzyme [3]: 50 µM
Structure (SMILES): COc1cc(NS(C)(=O)=O)ccc1Nc1c2ccccc2nc2ccccc12 [m-AMSA, 4′-(9-acridinylamino)methanesulfon-m-anisidide]
concentration giving the Gaussian distribution of DNA topoisomers [2]: 50 µM

Structure (SMILES): O=C1c2c(O)ccc(O)c2C(=O)c2c(NCCNCCO)ccc(NCCNCCO)c21 [MTX, mitoxantrone]
dose at which switch to catalytic inhibition of Top1 occurs [4]: 1 to 10 µM
PicoGreen relative fluorescence readout ([4]; doses of 0.1 and 1 μM): positive
